Laboratory results: patent publication US5604262A, “Topical antimicrobial agents” (Research Corporation Technologies, Inc., priority 1995, dated 1997)
Converted amounts (≈) assume the structure as drawn.

Key:
[1] = system: Staphylococcus aureus ATCC 12598; test: MIC by two-fold serial broth dilution; assay type: cell-based; conditions: S. aureus; for MIC: Staphylococcus aureus, ATCC12598, 48 h, NYG broth, two days, turbidity OD 660 nm
Excerpt: (§1) The microorganisms tested were from the American Type Culture Collection (Rockville, Md.). They are Bacillus subtilis ATCC 9372, Brevibacterium ammoniagenes ATCC 6872, Staphylococcus aureus ATCC 12598, Streptococus mutans ATCC 25175, Propionibacterium acnes ATCC 11827, Pseudimonas aeruginosa ATCC 10145, Enterobacter aerogenes ATCC 13048, Eschericia coli ATCC 9637, Proteus vulgaris ATCC […], Saccharomyces cerevisiae ATCC 7754, Candida utilis ATCC 9226, Pityrosporum ovale ATCC 14521, Penicillium chrysogenum ATCC 10106 and Trichophyton mentagrophytes ATCC 18748.
(§2) The bacterial culture media except for S. mutans was 0.8% nutrient broth (BBL), 0.5% yeast Extract (Difco) and 0.1% glucose (NYG broth). S. mutans was cultured in 3.7% brain heart infixsion broth (Difco). All fungi, except P. ovale and T. mentagrophytes were cultured in a 2.5% malt extract broth (BBL). P. ovale was cultured in 1% bactopeptone (Difco), 0.5% yeast extract, 1% glucose and 0.1% corn oil. For T. mentagrophytes the culture media was 1% bactopeptone and 4% glucose.
(§3) Freeze dried samples were prepared for testing as follows. B. subtilis, S. cerevisiae, C. utilis, and P. ovale, were shake-cultured for two days at 30° C. P. chrysogenum and T. mentagrophytes were shake-cultured for 5 days at 30° C. B. ammoniagenes and E. aerogenes were stationarily cultured at 30° C. S. aureus, S. mutans, P. acnes, P. aeruginosa, E. coli and P. vulgaris were stationarily cultured at 37° C.
(§4) The minimum inhibitory concentration (MIC) of the 3-alken-2-ones (compounds 1-4, 6-8) and 3,13-tetradecadien-2-one (compound 5) was performed using a two-fold serial broth dilution. Each test compound was dissolved in DMF and 30 μL of this sample was dissolved in 3 mL of the applicable medium. A 30 μL sample of the previously described culture of each microorganism was added to the various medium solutions. After two days, the cultures of B. subtilis, S. cerevisiae, C. utilis B. ammoniagenes, E. aerogenes, S. aureus, S. mutans, P. acnes, P. aeruginosa, E. coli and P. vulgaris were examined for turbidity (OD at 660 nm). The fungi, P. ovale, P. chrysogenum and T. mentagrophytes, were examined visually for growth at 3 days (P. ovale) and 5 days (P. chrysogenum and T. mentagrophytes). The MIC was determined as the lowest concentration for each compound that no growth was observed. The highest concentration used in these tests was 800 μg/mL.

[2] = system: Pseudimonas aeruginosa ATCC 10145; test: MIC by two-fold serial broth dilution; assay type: cell-based; conditions: P. aeruginosa; for MIC: Pseudomonas aeruginosa, ATCC10145, 48 h, NYG broth, two days, turbidity OD 660 nm
Excerpt: as §1, §2, §3, §4

[3] = system: Bacillus subtilis ATCC 9372; test: MIC by two-fold serial broth dilution; assay type: cell-based; conditions: B. subtilis; for MIC: Bacillus subtilis, ATCC9372, 48 h, NYG broth, two days, turbidity OD 660 nm
Excerpt: as §1, §2, §3, §4

[4] = system: Saccharomyces cerevisiae ATCC 7754; test: MIC by two-fold serial broth dilution; assay type: cell-based; conditions: S. cerevisiae; for MIC: Saccharomyces cerevisiae, ATCC7754, 48 h, malt extract broth, two days, turbidity OD 660 nm
Excerpt: as §1, §2, §3, §4

[5] = system: Pityrosporum ovale ATCC 14521; test: MIC by two-fold serial broth dilution; assay type: cell-based; conditions: P. ovale; for MIC: 72 h, bactopeptone/yeast extract/glucose/corn oil, 3 days, visual
Excerpt: as §1, §2, §3, §4

[6] = system: Brevibacterium ammoniagenes ATCC 6872; test: MIC by two-fold serial broth dilution; assay type: cell-based; conditions: B. ammoniagenes; for MIC: Corynebacterium ammoniagenes, ATCC6872, 48 h, NYG broth, two days, turbidity OD 660 nm
Excerpt: as §1, §2, §3, §4

[7] = system: Proteus vulgaris ATCC 133315; test: MIC by two-fold serial broth dilution; assay type: cell-based; conditions: ATCC133315, 48 h, P. vulgaris, NYG broth, two days, turbidity OD 660 nm
Excerpt: as §1, §2, §3, §4

[8] = system: Streptococus mutans ATCC 25175; test: MIC by two-fold serial broth dilution; assay type: cell-based; conditions: S. mutans; for MIC: Streptococcus mutans, ATCC25175, 48 h, brain heart infusion broth, two days, turbidity OD 660 nm
Excerpt: as §1, §2, §3, §4

[9] = system: Trichophyton mentagrophytes ATCC 18748; test: MIC by two-fold serial broth dilution; assay type: cell-based; conditions: ATCC18748, 120 h, T. mentagrophytes, bactopeptone/glucose, 5 days, visual
Excerpt: as §1, §2, §3, §4

[10] = system: Enterobacter aerogenes ATCC 13048; test: MIC by two-fold serial broth dilution; assay type: cell-based; conditions: E. aerogenes; for MIC: Klebsiella aerogenes, ATCC13048, 48 h, NYG broth, two days, turbidity OD 660 nm
Excerpt: as §1, §2, §3, §4

[11] = system: Eschericia coli ATCC 9637; test: MIC by two-fold serial broth dilution; assay type: cell-based; conditions: E. coli; for MIC: Escherichia coli, ATCC9637, 48 h, NYG broth, two days, turbidity OD 660 nm
Excerpt: as §1, §2, §3, §4

[12] = system: Penicillium chrysogenum ATCC 10106; test: MIC by two-fold serial broth dilution; assay type: cell-based; conditions: P. chrysogenum; for MIC: Penicillium chrysogenum, ATCC10106, 120 h, malt extract broth, 5 days, visual
Excerpt: as §1, §2, §3, §4

[13] = system: Propionibacterium acnes ATCC 11827; test: MIC by two-fold serial broth dilution; assay type: cell-based; conditions: P. acnes; for MIC: Cutibacterium acnes, ATCC11827, 48 h, NYG broth, two days, turbidity OD 660 nm
Excerpt: as §1, §2, §3, §4

Candia utilis ATCC 9226 = test: MIC by two-fold serial broth dilution; assay type: cell-based, Candida utilis; conditions: C. utilis; for MIC: Williopsis jadinii, ATCC9226, 48 h, malt extract broth, two days, turbidity OD 660 nm
Excerpt: as §1, §2, §3, §4

Pr. acnes = conditions: Kubo et al. 1994; cited from earlier work
[14] = system: bacteria and fungi in the test, except S. mutans and P. acnes; test: MIC test, all bacteria and fungi except S. mutans and P. acnes; assay type: cell-based; conditions: all of the bacteria and fungi in the test
Excerpt: as §1, §2
Freeze dried samples were prepared for testing as follows. […]
The minimum inhibitory concentration (MIC) of the 3-alken-2-ones (compounds 1-4, 6-8) and 3,13-tetradecadien-2-one (compound 5) was performed using a two-fold serial broth dilution. […] The MIC was determined as the lowest concentration for each compound that no growth was observed. […]

Row | Compound | MIC [1] | MIC [2] | MIC [3] | MIC [4] | MIC [5] | MIC [6] | MIC [7] | MIC [8] | MIC [9] | MIC [10] | MIC [11] | MIC [12] | MIC [13] | MIC (Candia utilis ATCC 9226) | activity against Pr. acnes (in words) (Pr. acnes) | further results
1 | C=CCCCCCCCC/C=C/C(C)=O [Compound 5, (E)-3,13-Tetradecadien-2-one] | > 800 µg/mL | > 800 µg/mL | > 800 µg/mL | > 800 µg/mL | 200 µg/mL (≈ 960 µM) | > 800 µg/mL | > 800 µg/mL | 25 µg/mL (≈ 120 µM) | 12.5 µg/mL (≈ 60 µM) | > 800 µg/mL | > 800 µg/mL | 800 µg/mL (≈ 3840 µM) | 12.5 µg/mL (≈ 60 µM) | > 800 µg/mL |  | 
2 | CC(=O)CCC=C(C)CCC=C(C)CCC=C(C)C [farnesylacetone] |  |  |  |  |  |  |  |  |  |  |  |  |  |  | inactive | 
3 | CC(C)=CCCC(C)=CCCC(C)=CCO [farnesol] |  |  |  |  |  |  |  |  |  |  |  |  |  |  | exhibited activity | 
4 | CCCCCCC/C=C/C(C)=O [Compound 1, (E)-3-Undecen-2-one] | 200 µg/mL (≈ 1190 µM) | > 800 µg/mL | 100 µg/mL (≈ 594 µM) | 800 µg/mL (≈ 4750 µM) | 100 µg/mL (≈ 594 µM) | 200 µg/mL (≈ 1190 µM) | 50 µg/mL (≈ 297 µM) | 100 µg/mL (≈ 594 µM) | 100 µg/mL (≈ 594 µM) | > 800 µg/mL | > 800 µg/mL | 100 µg/mL (≈ 594 µM) | 50 µg/mL (≈ 297 µM) | 50 µg/mL (≈ 297 µM) |  | 
5 | CC(C)=CCCC(C)=CCCC(C)=CCCC(C)O (stereo not drawn) [farnesyl acetol] |  |  |  |  |  |  |  |  |  |  |  |  |  |  | exhibited activity | 
6 | CCCCCCCCCCC/C=C/C(C)=O [Compound 6, (E)-3-Pentadecen-2-one] | > 800 µg/mL | > 800 µg/mL | > 800 µg/mL | > 800 µg/mL | 400 µg/mL (≈ 1780 µM) | > 800 µg/mL | > 800 µg/mL | 200 µg/mL (≈ 891 µM) | 800 µg/mL (≈ 3570 µM) | > 800 µg/mL | > 800 µg/mL | > 800 µg/mL | 6.25 µg/mL (≈ 27.9 µM) | > 800 µg/mL |  | 
7 | CCCCCCCCC/C=C/C(C)=O [Compound 3, (E)-3-Tridecen-2-one] | 50 µg/mL (≈ 255 µM) | > 800 µg/mL | 100 µg/mL (≈ 509 µM) | > 800 µg/mL | 100 µg/mL (≈ 509 µM) | 100 µg/mL (≈ 509 µM) | 800 µg/mL (≈ 4070 µM) | 25 µg/mL (≈ 127 µM) | 25 µg/mL (≈ 127 µM) | > 800 µg/mL | > 800 µg/mL | 800 µg/mL (≈ 4070 µM) | 12.5 µg/mL (≈ 63.7 µM) | > 800 µg/mL |  | activity (in words) [1]: showed activity; activity (in words) [2]: not active; activity (in words) [3]: showed activity; activity (in words) [4]: no activity; activity (in words) [5]: moderate inhibition; activity (in words) [6]: showed activity; activity (in words) [8]: showed activity; activity (in words) [10]: not active; activity (in words) [11]: not active; activity (in words) [12]: Weak activity; activity (in words) [13]: showed activity; activity (in words) (Candia utilis ATCC 9226): no activity
8 | CCCCCCCCCCCC/C=C/C(C)=O [Compound 7, (E)-3-Hexadecen-2-one] | > 800 µg/mL | > 800 µg/mL | > 800 µg/mL | > 800 µg/mL | > 800 µg/mL | > 800 µg/mL | > 800 µg/mL | 400 µg/mL (≈ 1680 µM) | > 800 µg/mL | > 800 µg/mL | > 800 µg/mL | > 800 µg/mL | 3.13 µg/mL (≈ 13.1 µM) | > 800 µg/mL |  | activity (in words) [8]: weakly active; activity (in words) [13]: strong activity; activity (in words) [14]: inactive
9 | CC(C)=CCCC(C)=CCCC(C)O (stereo not drawn) [geranylacetol] |  |  |  |  |  |  |  |  |  |  |  |  |  |  | exhibited activity | 
10 | CCCCCCCC/C=C/C(C)=O [Compound 2, (E)-3-Dodecen-2-one] | 100 µg/mL (≈ 549 µM) | > 800 µg/mL | 100 µg/mL (≈ 549 µM) | 800 µg/mL (≈ 4390 µM) | 100 µg/mL (≈ 549 µM) | 100 µg/mL (≈ 549 µM) | 50 µg/mL (≈ 274 µM) | 50 µg/mL (≈ 274 µM) | 100 µg/mL (≈ 549 µM) | > 800 µg/mL | > 800 µg/mL | 100 µg/mL (≈ 549 µM) | 25 µg/mL (≈ 137 µM) | 400 µg/mL (≈ 2190 µM) |  | 
11 | CCCCCCCCCC/C=C/C(C)=O [Compound 4, (E)-3-Tetradecen-2-one] | > 800 µg/mL | > 800 µg/mL | > 800 µg/mL | > 800 µg/mL | 100 µg/mL (≈ 475 µM) | > 800 µg/mL | > 800 µg/mL | 25 µg/mL (≈ 119 µM) | 12.5 µg/mL (≈ 59.4 µM) | > 800 µg/mL | > 800 µg/mL | 800 µg/mL (≈ 3800 µM) | 12.5 µg/mL (≈ 59.4 µM) | > 800 µg/mL |  | activity (in words) [2]: not active; activity (in words) [4]: no activity; activity (in words) [5]: moderate inhibition; activity (in words) [8]: showed activity; activity (in words) [10]: not active; activity (in words) [11]: not active; activity (in words) [12]: Weak activity; activity (in words) [13]: showed activity; activity (in words) (Candia utilis ATCC 9226): no activity
